Laboratory results: patent US20020045591A1, “Methods and therapeutic compositions for treating cancer” (priority 1998, published 2002)
Non-standard residues stand in square brackets, D forms with d. Residues, ends and D or L forms follow the SMILES beside them. No end group written: not given here. *: point of attachment. Nle = CCCC[C@H](N)C(=O)O; Cbz = O=C(OCc1ccccc1)*

Assays:
[1] = tested on: β-catenin; test: β-catenin Western blot in Balb/C 3T3 cells treated with ubiquitin-proteasome inhibitors; format: cell-based, mouse; details: treated 4 hours, FIG. 17A
Experimental: (§1) Lactacystin A (dissolved in water at 0.4 mg/ml was used at a final concentration of 4 μg/ml) and MG-132 (used at 10 or 20 μM) were purchased from Calbiochem (La Jolla, Calif.).
Polyacrylamide Gel Electrophoresis and Immunoblotting: Equal amounts of total cell protein were separated by SDS PAGE, electro-transferred to nitrocellulose and incubated with monoclonal antibodies. The antigens were visualized by the enhanced chemiluminescence (Amersham, Buckinghampshire, U.K). In some experiments, cells were fractionated into Triton X-100-soluble and -insoluble fractions. Briefly, cells cultured on 35 mm dishes were incubated in 0.5 ml buffer containing 50 mM MES, pH 6.8, 2.5 mM EGTA, 5 mM MgCl2 and 0.5% Triton-X-100, at room temperature for 3 minutes. The Triton X-100-soluble fraction was removed, and the insoluble fraction was scraped into 0.5 ml of the same buffer. Equal volumes of the two fractions were analyzed by SDS PAGE followed by immunoblotting with the various antibodies.

[2] = tested on: β-catenin; test: β-catenin Western blot in KTCTL60 cells treated with proteasome inhibitor; format: cell-based, human; details: 10 and 20 μM, FIG. 17B
Experimental: (§2) Cell Culture and Transfections: Canine kidney epithelial cells MDCK, human fibrosarcoma HT1080, 293-T human embryonic kidney cells, Balb/C mouse 3T3 and human colon carcinoma SW480 cell lines were cultured in Dulbecco's modified Eagle's medium supplemented with 10% calf serum (Gibco, Grand Island, N.Y.) at 37° C. in the presence of 7% CO2. The human renal carcinoma cell line KTCTL60 was grown in RPMI medium and 10% calf serum. Cells were transiently transfected with the cDNA constructs described below, using Ca^2+-phosphate or lipofectamine (Gibco) and the expression of the transgene was assessed between 24 and 48 hours after transfection. In some experiments, the expression of the stably transfected NH2 terminus-deleted β-catenin (Δ57) was enhanced in HT1080 cells by overnight treatment with 2 mM sodium butyrate.
as §1
(§3) Polyacrylamide Gel Electrophoresis and Immunoblotting: Equal amounts of total cell protein were separated by SDS PAGE, electro-transferred to nitrocellulose and incubated with monoclonal antibodies. […] Equal volumes of the two fractions were analyzed by SDS PAGE followed by immunoblotting with the various antibodies.

[3] = tested on: plakoglobin; test: Plakoglobin Western blot in KTCTL60-PG cells treated with proteasome inhibitor; format: cell-based, human; details: 10 and 20 μM, FIG. 17B
Experimental: as §2, §1, §3

[4] = tested on: HT1080 cells; test: Butyrate induction in HT1080 cells stably expressing ΔN57 β-catenin; format: cell-based, human
Experimental: as §2, with “In some experiments, the expression of the stably transfected NH2 terminus-deleted β-catenin (Δ57) was enhanced in HT1080 cells by overnight treatment with 2 mM sodium butyrate.” left out
Immunofluorescence Microscopy: Cells cultured on glass coverslips were fixed with 3.7% paraformaldehyde in PBS and permeabilized with 0.5% Triton X-100. […] Images of the fluorescent cells were recorded with a cooled, scientific grade CCD camera (Photometrics, Tucson, Ariz.). Integrated fluorescent intensities in transfected and nontransfected cells were determined, after the background was subtracted.
as §3

[5] = tested on: β-catenin-mediated transactivation; test: TOPFLASH luciferase transactivation in SW480 cells (Example 1); format: cell-based, human; details: SW480 cells, GFP-fused cadherin tail constructs, FIG. 7C
Experimental: (§4) Cell culture and transfections: CHO and SW480 human colon carcinoma cells were cultured in Dulbecco's modified Eagle's medium containing 10% fetal calf serum in an 8% CO2 incubator at 37° C. Transfections were performed using Lipofectamine (Gibco, BRL, USA) according to the manufacturer's instructions. Stably transfected CHO clones were generated by co-transfection with a plasmid encoding the puromycin resistance gene. Two days after transfection, cells were replated in the presence of 10 μg/ml puromycin (Sigma, Holon, Israel). Stable clones were isolated 2 weeks later and tested for the expression of the transgene by Western blot analysis.
Transactivation assays: CHO cells were transfected with TOPFLASH or FOPFLASH vectors (van de Wetering et al., 1997, ibid) and with pCDNA3 coding for β-galactosidase to normalize for transfection efficiency. The transfection mixture also contained either β-catenin, LEF-1 or cadherin derivatives in different combinations, as indicated. SW480 cells were transfected with TOPFLASH and cadherin derivatives. After 48 hours, cells were harvested and tested for luciferase and β-galactosidase activities as follows: Cells were washed 5 times with PBS, resuspended in PM-2 buffer (33 mM NaH2PO4, 66 mM Na2HPO4, 0.1 mM MnCl2, 2 mM MgSO4, 40 mM β-mercaptoethanol) and lysed by 5 cycles of freezing and thawing. Aliquots containing equal amounts of protein were incubated with O-Nitrophenyl-β-D-galactopyranoside (ONPG) at 37° C. until a yellow color appeared. The reactions were stopped with 1 M Na2CO3 and the absorbance at 420 nm was determined. Identical aliquots were tested for luciferase activity using luciferine buffer (100 mM Tris-O-Acetate pH 7.8, 10 mM Mg-O-Acetate, 1 mM EDTA, 74 μM luciferine (Boehringer Mannheim, Germany) and 2.22 mM ATP, pH 7.0). The luciferase reaction was monitored by a TD-20e luminometer (Turner, USA) and normalized for the β-galactosidase activity.
Distribution of N-cadherin derivatives and the effect on β-catenin transactivation in SW480 cells: SW480 colon carcinoma cells express mutant APC, low levels of E-cadherin and relatively high levels of free β-catenin. These cells also display very significant β-catenin-mediated transcription after transfection with TOPFLASH (FIG. 6A, lane 1). To determine the effect of cadherin on this β-catenin-driven transactivation, each of the three N-cadherin derivatives was transfected together with TOPFLASH into SW480 cells and luciferase activity determined. […] The most efficient inhibitor of this transactivation was the cadherin tail construct (FIG. 6A, lane 4), which inhibited the reporter gene by more than 85%. Full-length N-cadherin and the IL2R/N-cadherin chimera decreased the activity of the reporter by about 70% and 50%, respectively.

[6] = biological target: T1, β-catenin (Cricetulus griseus, UniProt G3H996); test: β-catenin level in CHO cells by Western blot; format: cell-based; details: CHO cells transiently transfected with GFP-cadherin constructs, FIG. 7B
T1 construct: resulting from the stabilization of the endogenous β-catenin by the transfected cadherin derivatives; endogenous in cells; host or cells: CHO cells, stably or transiently transfected with cadherin derivatives only
T1 sequence (G3H996 1-781): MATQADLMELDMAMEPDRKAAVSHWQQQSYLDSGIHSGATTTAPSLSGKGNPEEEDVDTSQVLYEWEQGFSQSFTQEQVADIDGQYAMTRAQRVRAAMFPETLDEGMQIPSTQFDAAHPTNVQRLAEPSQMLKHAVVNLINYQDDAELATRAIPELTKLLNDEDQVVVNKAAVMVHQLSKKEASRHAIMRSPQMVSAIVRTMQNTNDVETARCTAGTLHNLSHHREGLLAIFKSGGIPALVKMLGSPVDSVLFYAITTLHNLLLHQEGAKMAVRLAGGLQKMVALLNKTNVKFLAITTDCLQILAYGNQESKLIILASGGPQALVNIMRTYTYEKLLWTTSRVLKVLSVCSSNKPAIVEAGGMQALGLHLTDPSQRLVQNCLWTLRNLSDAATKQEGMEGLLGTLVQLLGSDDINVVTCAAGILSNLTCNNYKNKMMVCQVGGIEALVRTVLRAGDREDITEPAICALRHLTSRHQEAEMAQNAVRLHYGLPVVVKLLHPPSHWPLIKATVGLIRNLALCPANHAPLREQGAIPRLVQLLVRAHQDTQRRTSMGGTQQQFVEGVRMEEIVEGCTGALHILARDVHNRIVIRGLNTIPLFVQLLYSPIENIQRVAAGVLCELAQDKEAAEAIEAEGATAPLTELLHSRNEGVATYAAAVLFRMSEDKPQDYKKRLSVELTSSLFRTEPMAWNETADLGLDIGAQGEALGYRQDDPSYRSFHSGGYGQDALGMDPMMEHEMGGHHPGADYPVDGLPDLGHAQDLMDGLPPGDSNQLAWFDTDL
Experimental: as §4
Immunoblotting and immunoprecipitation: The following antibodies were used: polyclonal pan-cadherin or monoclonal anti cadherin (CH-19) and polyclonal anti β-catenin antibodies were from Sigma (Holon, Israel). Monoclonal anti β-catenin, 5H10 (from M. Wheelock), anti IL2Rα (from UBI), anti flag (M2, from IBI), anti HA (clone 12CA5, from Boehringer Mannheim, Germany), anti GFP (polyclonal, from Clontech, Palo Alto, Calif.), anti LEF-1 (polyclonal, kindly provided by Dr. R. Grosschedl). Secondary antibodies for Western blotting were goat anti rabbit or anti mouse conjugated to HRP (Amersham, Buckinghampshire, UK), and for immunofluorescence analysis the secondary antibodies were FITC-goat anti mouse (Cappel, USA) or rhodamine-anti rabbit antibodies (from Jackson Immuno-Research, West Grove, Pa.). Cells were harvested in Laemmli's sample buffer and equal amounts of total cell protein from the different clones, or from transient transfections, were separated by SDS-PAGE, electrotransferred to nitrocellulose and incubated with the different antibodies. For immunoprecipitation, cells were harvested in IP buffer (20 mM Tris pH 8.0, 1% Triton X-100, 140 mM NaCl, 10% glycerol, 1 mM EGTA, 1.5 mM MgCl2, 1 mM DTT, 1 mM sodium vanadate, and 50 μg/ml PMSF). Equal amounts (500-700 μg) of cell protein were incubated with 1 μl of the relevant antibody for 2 hours at 4° C., followed by incubation with 20 μl of protein A+G/agarose beads (Santa Cruz Biotechnologies, Santa Cruz, Calif.) for an additional 2 hours at 4° C. The agarose beads were washed with 20 mM Tris pH 8.0, 150 mM NaCl, and 0.5% NP-40, and the immune complexes recovered by boiling in Laemmli's sample buffer and resolved by SDS-PAGE.

Compound	effect on β-catenin (Western blot) [1]	inhibition of luciferase activity (LEF-1-driven transactivation) [5]	stabilization of β-catenin against degradation [6]	other results
CCCC[C@@H](C=O)NC(=O)[C@H](CC(C)C)NC(=O)[C@H](CC(C)C)NC(C)=O [ALLN, N-Acetyl-Leu-Leu-Norleucinal] (Ac-Leu-Leu-[Nle]-aldehyde)	appearance of higher molecular weight β-catenin forms			
CC(=O)N[C@@H](CSC(=O)[C@]1([C@@H](O)C(C)C)NC(=O)[C@H](C)[C@@H]1O)C(=O)O [Lactacystin]	appearance of higher molecular weight β-catenin forms			
CC(C)C[C@@H](C=O)NC(=O)[C@H](CC(C)C)NC(=O)[C@H](CC(C)C)NC(=O)OCc1ccccc1 [MG-132] (Cbz-Leu-Leu-Leu-aldehyde)	appearance of higher molecular weight β-catenin forms			effect on β-catenin content [2]: dramatic elevation in β-catenin content; effect on plakoglobin level [3]: moderate increase in plakoglobin
CCCC(=O)[O-].[Na+] [butyrate, sodium butyrate]				β-catenin localization ([4]; butyrate-treated, FIG. 14D): dramatic translocation of β-catenin into the nucleus; increase in expression of the transgene (western blot) ([4]; overnight 2 mM sodium butyrate, data not shown): about 2 fold
E30: E-cadherin tail fragment, amino acids 833-862, fused to GFP		did not affect β-catenin-mediated transactivation	ineffective in stabilizing β-catenin against degradation	
E72: C-terminal 72 amino acids of E-cadherin (813-884) fused to GFP		60%	could also stabilize β-catenin	
N30: N-cadherin tail fragment, amino acids 862-891, fused to GFP (LVFDYEGSGSTAGSLSSLNSSSSGGEQDYD; also: fused to GFP)		did not affect β-catenin-mediated transactivation	ineffective in stabilizing β-catenin against degradation	
N71: C-terminal 71 amino acids of N-cadherin (842-912) fused to GFP		70%	could also stabilize β-catenin	
